According to patent publication US20130023504A1, “Modulation of Prostaglandin/Cyclooxygenase Metabolic Pathways” (HUNTER-FLEMING LIMITED, priority 2006, published 2013):
Marks after values point to notes of the source that are not given here.

System: human PBMC
Experiment: PG levels (PGE2, PGD2, 15d-PGJ2) in culture medium of human PBMC cultured with and without TNF-α, EIA (Example 3)
Type: cell-based
Protocol: Whole blood was collected from donors in EDTA-supplemented pouches at the Etablissement Français du Sang (Brest, France). The PBMC were isolated then from whole blood under sterile conditions within 36 hours after collection. Gradient density centrifugation was carried out on Ficoll (Eurobio). After washing in RPMI 1640 medium (Eurobio), cells were suspended in RPMI 1640 medium supplemented with 10% heat-inactivated fetal calf serum (Eurobio), 2 mM glutamine (D. Dutscher), 100 U of penicillin/ml (D. Dutscher), and 100 μg of streptomycin/ml (D. Dutscher). Monocytes were selected by plastic adherence for 1 h and approximately 10^7 cells were plated in 6-well tissue culture plates (3 mL medium per well). All incubations were performed in a humidified incubator at 37° C. and 5% CO2. Cells were recovered and dispersed in 2 ml fresh incubation medium supplemented with either 7β-hydroxyEPIA, 7β-hydroxy-DHEA, or 7α-hydroxy-DHEA (in 20 μL ethanol) in the presence or absence of 0.01 μg/mL TNF-α (Sigma-Aldrich). Control incubations contained 20 μl ethanol but no steroid. Supernatants were collected after 4 h and 24 hours incubations for measurement of their PG contents and cells were used for subsequent RNA isolation. A single step extraction method using the Trizol Reagent (Invitrogen, Cergy-Pontoise, France) provided total RNA.
Commercially available EIA kits were used for the determination of PGE2 levels (Oxford Biomedical Research, UK) and 15d-PGJ2 levels (Assay designs, Euromedex, France) in culture media. Measurement of PGD2 levels was obtained using the prostaglandin D2-MOX EIA kit (Cayman Chemical, Euromedex). In this case, and prior to assay, the fresh samples were immediately treated with the MOX-HCl reagent, which converted PGD2 into PGD2-MOX, thus preventing any further chemical degradation.
All assays were carried out in triplicate and results were plotted as mean±S.E.M. One-way analysis of variance was performed followed by Duncan's multiple range tests in order to compare the differences between groups. Differences were considered statistically significant when p<0.05.

[1] = 100 nM + TNF-α (10 ng/mL), 24 h

CC12CCC3C(C1CCC2=O)[C@@H](O)C[C@H]1C[C@@H](O)CCC31C (stereo partly drawn) [Compound 7β-OH-EPIA, 7β-hydroxy-EPIAndrosterone]
15d-PGJ2 (1 nM + TNF-α (10 ng/mL), 4 h): 0.37 ± 0.029 ng/mL
PGD2 (1 nM + TNF-α (10 ng/mL), 4 h): 0.22 ± 0.082 ng/mL
PGE2 (1 nM + TNF-α (10 ng/mL), 4 h): 0.50 ± 0.012 ng/mL
15d-PGJ2 (1 nM + TNF-α (10 ng/mL), 24 h): 2.18 ± 0.183^c ng/mL
PGD2 (1 nM + TNF-α (10 ng/mL), 24 h): 0.47 ± 0.013^d ng/mL
PGE2 (1 nM + TNF-α (10 ng/mL), 24 h): 0.70 ± 0.001^b ng/mL
15d-PGJ2 (1 nM, 4 h, without TNF-α): 0.39 ± 0.080 ng/mL
PGD2 (1 nM, 4 h, without TNF-α): 0.18 ± 0.005 ng/mL
PGE2 (1 nM, 4 h, without TNF-α): 0.26 ± 0.011 ng/mL
15d-PGJ2 (1 nM, 24 h, without TNF-α): 0.85 ± 0.014^a ng/mL
PGD2 (1 nM, 24 h, without TNF-α): 0.21 ± 0.012^a ng/mL
PGE2 (1 nM, 24 h, without TNF-α): 0.26 ± 0.015 ng/mL
15d-PGJ2 (10 nM + TNF-α (10 ng/mL), 4 h): 0.40 ± 0.007 ng/mL
PGD2 (10 nM + TNF-α (10 ng/mL), 4 h): 0.22 ± 0.010 ng/mL
PGE2 (10 nM + TNF-α (10 ng/mL), 4 h): 0.49 ± 0.021 ng/mL
15d-PGJ2 (10 nM + TNF-α (10 ng/mL), 24 h): 2.77 ± 0.021^c ng/mL
PGD2 (10 nM + TNF-α (10 ng/mL), 24 h): 0.42 ± 0.009^d ng/mL
PGE2 (10 nM + TNF-α (10 ng/mL), 24 h): 0.80 ± 0.012^b ng/mL
15d-PGJ2 (10 nM, 4 h, without TNF-α): 0.39 ± 0.010 ng/mL
PGD2 (10 nM, 4 h, without TNF-α): 0.19 ± 0.020 ng/mL
PGE2 (10 nM, 4 h, without TNF-α): 0.23 ± 0.022 ng/mL
15d-PGJ2 (10 nM, 24 h, without TNF-α): 0.91 ± 0.032^a ng/mL
PGD2 (10 nM, 24 h, without TNF-α): 0.23 ± 0.001^a ng/mL
PGE2 (10 nM, 24 h, without TNF-α): 0.23 ± 0.021 ng/mL
15d-PGJ2 (100 nM + TNF-α (10 ng/mL), 4 h): 0.37 ± 0.016 ng/mL
PGD2 (100 nM + TNF-α (10 ng/mL), 4 h): 0.23 ± 0.007 ng/mL
PGE2 (100 nM + TNF-α (10 ng/mL), 4 h): 0.42 ± 0.020 ng/mL
15d-PGJ2 [1]: 0.85 ± 0.019^ ng/mL
PGD2 [1]: 0.40 ± 0.030^d ng/mL
PGE2 [1]: 0.71 ± 0.012^b ng/mL
15d-PGJ2 (100 nM, 4 h, without TNF-α): 0.37 ± 0.018 ng/mL
PGD2 (100 nM, 4 h, without TNF-α): 0.20 ± 0.013 ng/mL
PGE2 (100 nM, 4 h, without TNF-α): 0.22 ± 0.020 ng/mL
15d-PGJ2 (100 nM, 24 h, without TNF-α): 1.70 ± 0.016^a ng/mL
PGD2 (100 nM, 24 h, without TNF-α): 0.24 ± 0.031^a ng/mL
PGE2 (100 nM, 24 h, without TNF-α): 0.24 ± 0.022 ng/mL
